Reference: ChEMBL document CHEMBL2331377, “Spirocyclic compounds, potent CCR1 antagonists” (Bioorg Med Chem Lett, 2013)

Experiments:
[1] = target: T1, C-C chemokine receptor type 1 (Homo sapiens, UniProt P32246); assay: Displacement of [125I]MIP-1alpha from human recombinant CCR1 expressed in HEK293 cells after 1.5 hrs; assay type: cell-based
T1 sequence (P32246 whole entry): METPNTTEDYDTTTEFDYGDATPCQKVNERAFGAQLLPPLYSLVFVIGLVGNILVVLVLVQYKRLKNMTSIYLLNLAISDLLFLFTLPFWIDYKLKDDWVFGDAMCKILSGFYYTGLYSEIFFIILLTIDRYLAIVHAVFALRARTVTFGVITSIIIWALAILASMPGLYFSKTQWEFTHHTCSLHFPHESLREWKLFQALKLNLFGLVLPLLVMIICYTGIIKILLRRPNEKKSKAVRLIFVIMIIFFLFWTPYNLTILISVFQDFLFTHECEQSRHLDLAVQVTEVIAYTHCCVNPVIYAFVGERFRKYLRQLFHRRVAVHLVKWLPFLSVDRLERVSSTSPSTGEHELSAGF

[2] = in vitro; details: human
[3] = in vitro; details: human, Caco-2
[4] = in vitro; details: rat, hepatocytes
[5] = in vitro; details: human, hepatocytes
[6] = Clearance in rat liver microsomes; assay type: ADME, Microsome; details: read-out: CLH

| SMILES | IC50 [1] | microsomal CLint ([2]; liver microsomes) | Papp [3] | hepatocyte CLint [4] | hepatocyte CLint [5] | microsomal CLint [6] | microsomal CLint ([2]; microsomes) |
| --- | --- | --- | --- | --- | --- | --- | --- |
| CC(=O)Nc1ccccc1OC[C@@H](O)CN1CCC2(CC1)Cc1cc(Cl)ccc1O2 | 0.96 nM | < 17 µL/min/mg | 26 ×10⁻⁶ cm/s | 26 µL/min/1e6 cells | 2.5 µL/min/1e6 cells | – | – |
| CC(=O)Nc1ccccc1OC[C@@H](O)CN1CCC2(CC1)Cc1cc(F)ccc1O2 | 0.96 nM | 25.5 µL/min/mg | 16.5 ×10⁻⁶ cm/s | – | 11 µL/min/1e6 cells | – | – |
| CC(=O)Nc1ccc(O)cc1OC[C@@H](O)CN1CCC2(CC1)Cc1cc(Cl)ccc1O2 | – | < 10 µL/min/mg | – | 25.7 µL/min/1e6 cells | < 3 µL/min/1e6 cells | – | – |
| CC(=O)Nc1ccc(O)cc1OC[C@@H](O)CN1CCC2(CC1)Cc1cc(F)ccc1O2 | – | – | 6.6 ×10⁻⁶ cm/s | 17.6 µL/min/1e6 cells | < 3.6 µL/min/1e6 cells | – | < 10 µL/min/mg |
| COc1ccc(NC(C)=O)c(OC[C@@H](N)CN2CCC3(CC2)Cc2cc(Cl)ccc2O3)c1 | 6 nM | 12.6 µL/min/mg | – | – | – | – | – |
| COc1ccc(NC(C)=O)c(OC[C@@H](N)CN2CCC3(CC2)Cc2cc(F)ccc2O3)c1 | 9 nM | 17.4 µL/min/mg | – | – | 3.5 µL/min/1e6 cells | – | – |
| COc1ccc(NC(C)=O)c(OC[C@@H](N)CN2CCC3(CC2)Cc2ccccc2O3)c1 | 32 nM | 18.8 µL/min/mg | – | – | – | – | – |
| CC(=O)Nc1ccc(O)cc1OC[C@@H](N)CN1CCC2(CC1)Cc1cc(F)ccc1O2 | 1.4 nM | < 10 µL/min/mg | 2.7 ×10⁻⁶ cm/s | < 3 µL/min/1e6 cells | < 3 µL/min/1e6 cells | < 10 µL/min/mg | – |
| CC(=O)Nc1ccc(O)cc1OC[C@@H](N)CN1CCC2(CC1)Cc1ccccc1O2 | 18 nM | < 10 µL/min/mg | 1.6 ×10⁻⁶ cm/s | 6.6 µL/min/1e6 cells | < 3 µL/min/1e6 cells | 14 µL/min/mg | – |

Further molecules by falling IC50 [1], results first:

| IC50 [1] | microsomal CLint ([2]; liver microsomes) | Papp [3] | hepatocyte CLint [4] | hepatocyte CLint [5] | microsomal CLint [6] | microsomal CLint ([2]; microsomes) | SMILES |
| --- | --- | --- | --- | --- | --- | --- | --- |
| 0.9 nM | 55 µL/min/mg | 24.4 ×10⁻⁶ cm/s | – | – | – | – | COc1ccc(NC(C)=O)c(OC[C@@H](O)CN2CCC3(CC2)Cc2cc(Cl)ccc2O3)c1 |
| 0.79 nM | < 10 µL/min/mg | 2.7 ×10⁻⁶ cm/s | 4.2 µL/min/1e6 cells | < 3 µL/min/1e6 cells | < 10 µL/min/mg | – | CC(=O)Nc1ccc(O)cc1OC[C@@H](N)CN1CCC2(CC1)Cc1cc(Cl)ccc1O2 |
| 0.64 nM | 13.5 µL/min/mg | 17 ×10⁻⁶ cm/s | 17.5 µL/min/1e6 cells | 6.1 µL/min/1e6 cells | – | – | CC(=O)Nc1ccc(F)cc1OC[C@@H](O)CN1CCC2(CC1)Cc1cc(Cl)ccc1O2 |
| 0.36 nM | 17.8 µL/min/mg | 18 ×10⁻⁶ cm/s | 12 µL/min/1e6 cells | 9.3 µL/min/1e6 cells | 29 µL/min/mg | – | CC(=O)Nc1ccc(F)cc1OC[C@@H](O)CN1CCC2(CC1)Cc1cc(F)ccc1O2 |
